Tested on: colorectal tissue transcripts
Assay: SAGE of normal, adenoma and cancer colorectal tissue (transcript tag counts)
Set-up: species or system human
Conditions: for AD1 (SAGE tag count): SAGE library AD1; for AD2 (SAGE tag count): SAGE library AD2; for CA1 (SAGE tag count): SAGE library CA1; for CA2 (SAGE tag count): SAGE library CA2; for NC1 (SAGE tag count): SAGE library NC1; for NC2 (SAGE tag count): SAGE library NC2
From the text: In an effort to identify potential molecular markers of early colorectal tumors, we have here analyzed gene expression in benign and malignant colorectal tumors in an unbiased and comprehensive fashion. We used SAGE to analyze global gene expression in normal, benign and malignant colorectal tissue. SAGE is a gene expression profiling method that associates individual mRNA transcripts with 15-base tags derived from specific positions near their 3′ termini (3). The abundance of each tag provides a quantitative measure of the transcript level present within the mRNA population studied. SAGE is not dependent on pre-existing databases of expressed genes, and therefore provides an unbiased view of gene expression profiles. For the current study, SAGE libraries derived from two samples of normal colonic epithelium, two colorectal adenomas, and two colorectal cancers were analyzed.
SAGE. For the initial SAGE^3 of benign tumors, fresh adenomas were obtained from surgical specimens derived from FAP patients. Adenomas from FAP patients were employed because of the ready availability of small lesions and the certainty of inactivation of the APC pathway which initiates the formation of the majority of sporadic tumors. After histopathological verification of the neoplastic nature of the lesion (>70% neoplastic cells), total RNA was isolated by solubilizing the tissue in RNAgents Lysis Buffer (Promega, Madison, Wis.) followed by ultracentrifugation over a cesium chloride gradient. mRNA selection was performed from the purified total RNA using oligo(dT) cellulose (Life Technologies, Gaithersburg, Md.). […] Tags were extracted from the raw sequence data and, after excluding repeated ditags, linker sequences, and tags from the polyrnorphic Major Histocompatibility loci, the resulting tag libraries were compared and statistical analysis performed using SAGE software, version 4.0. Data from the libraries are publicly available at the Uniform Resource Locator (URL) address for the http file type found on the www host server that has a domain name of ncbi.nlm.nih.gov, and a path to the directory SAGE, and detailed SAGE protocols are available at the Uniform Resource Locator (URL) address for the http file type found on the www host server that has a domain name of sagenet.org, and file name of sage_protocol.htn.

Sequence	AD1 (SAGE tag count)	AD2 (SAGE tag count)	CA1 (SAGE tag count)	CA2 (SAGE tag count)	NC1 (SAGE tag count)	NC2 (SAGE tag count)
ATGCGGAGTC (chemistry not fully specified)	5	3	2	4	14	13
ATGCGGGAGA (chemistry not fully specified)	15	22	5	6	38	39
ATGGCACGGA (chemistry not fully specified; the letters are possibly those of the target site)	1	1	3	0	6	21
ATGGTCTACG (chemistry not fully specified)	0	0	1	0	10	5
ATGGTGGGGG (chemistry not fully specified)	11	9	1	2	25	30
ATGTGCGTGG (chemistry not fully specified)	11	3	7	7	38	8
ATGTGGGCTC (chemistry not fully specified)	0	0	0	0	7	2
ATTGGAGTGC (chemistry not fully specified)	15	36	37	19	136	85
ATTTCAAGAT (chemistry not fully specified)	0	2	1	0	35	21
CAAATAAAAG (chemistry not fully specified)	2	0	1	1	9	12
CAAGAGTTTC (chemistry not fully specified)	0	0	0	0	14	2
CACCCCTGAT (chemistry not fully specified)	58	58	13	36	73	169
CAGTGCGTTC (chemistry not fully specified)	0	0	3	0	12	3
CATAGGTTTA (chemistry not fully specified)	4	1	5	0	66	39
CCAAAGCTAT (chemistry not fully specified)	14	12	6	11	42	16

— patent publication US8029764B2, “Methods for detection of colorectal cancer” (The Johns Hopkins University, priority 2001, dated 2011)
